We go through 14 molecules from patent publication US8987287B2, “Spirocyclic morphinans and their use” (Purdue Pharma L.P., priority 2012, dated 2015).

The target in experiment [1] is μ-opioid receptor (Homo sapiens (Human), UniProt P35372). Kind of experiment: μ-opioid receptor [35S]GTPγS functional assay, U-2 OS cells. As to conditions: for Emax: relative to DAMGO, U-2 OS cells. Type of experiment: biochemical. On the procedure: μ-Opioid Receptor Functional Assay Procedures: [^35S]GTPγS functional assays were conducted using freshly thawed μ-receptor membranes prepared in-house from a cell line expressing recombinant μ opioid receptor in a HEK-293, CHO or U-2 OS cell background, or purchased from a commercial source (Perkin Elmer, Shelton, Conn.; or DiscovRx, Fremont, Calif.). Assay reactions were prepared by sequentially adding the following reagents to binding buffer (100 mM NaCl, 10 mM MgCl2, 20 mM HEPES, pH 7.4) on ice (final concentrations indicated): membrane protein (0.026 mg/mL), saponin ([…]), GDP ([…]) and [^35S]GTPγS (0.20 nM; Perkin Elmer, Shelton, Conn.). The prepared membrane solution (190 μl/well) was transferred to 96-shallow well polypropylene plates containing 10 μl of 20× concentrated stock solutions of the agonist [D-Ala^2, N-methyl-Phe^4 Gly-ol^5]-enkephalin (DAMGO) prepared in dimethyl sulfoxide (DMSO). Plates were incubated for 30 min at about 25° C. with shaking. Reactions were terminated by rapid filtration onto 96-well Unifilter GF/B filter plates (Perkin Elmer, Shelton, Conn.) using a 96-well tissue harvester (Perkin Elmer, Shelton, Conn.) followed by three filtration washes with 200 μl of ice-cold wash buffer (10 mM NaH2PO4, 10 mM Na2HPO4, pH 7.4). Filter plates were subsequently dried at 50° C. for 2-3 hours. BetaScint scintillation cocktail (Perkin Elmer, Shelton, Conn.) was added (50 μl/well) and plates were counted using a Packard Top-Count for 1 min/well. Data were analyzed using the sigmoidal dose-response curve fitting functions in GraphPad PRISM v. 3.0, or an in-house function for non-linear, sigmoidal dose-response curve-fitting.
μ-Opioid Receptor Functional Data: μ GTP EC50 is the concentration of a compound providing 50% of the maximal response for the compound at a μ-opioid receptor.
μ GTP Emax (%) is the maximal effect elicited by a compound relative to the effect elicited by DAMGO, a standard μ agonist. Generally, the μ GTP Emax (%) value measures the efficacy of a compound to treat or prevent pain or other Conditions.
(§1) The following TABLE 3 provides results on the activity response of certain Compounds of the Invention at the μ- and κ-opioid receptors determined as described above using U-2 OS cells.

The target in experiment [2] is κ opioid receptor (Homo sapiens (Human), UniProt P41145). Kind of experiment: κ-opioid receptor [35S]GTPγS functional assay, U-2 OS cells. Particulars: for Emax: relative to U69,593, U-2 OS cells. Type of experiment: biochemical. On the procedure: κ-Opioid Receptor Functional Assay Procedures: Functional [^35S]GTPγS binding assays were conducted as follows. κ opioid receptor membrane solution was prepared by sequentially adding final concentrations of 0.026 μg/μl κ membrane protein (in-house), 10 μg/mL saponin, 3 μM GDP and 0.20 nM [^35S]GTPγS to binding buffer (100 mM NaCl, 10 mM MgCl2, 20 mM HEPES, pH 7.4) on ice. The prepared membrane solution (190 μl/well) was transferred to 96-shallow well polypropylene plates containing 10 μl of 20× concentrated stock solutions of agonist prepared in DMSO. Plates were incubated for 30 min at a temperature of about 25° C. with shaking. Reactions were terminated by rapid filtration onto 96-well Unifilter GF/B filter plates (Perkin Elmer, Shelton, Conn.) using a 96-well tissue harvester (Packard) and followed by three filtration washes with 200 μl ice-cold binding buffer (10 mM NaH2PO4, 10 mM Na2HPO4, pH 7.4). Filter plates were subsequently dried at 50° C. for 2-3 hours. Fifty μl/well scintillation cocktail (Perkin Elmer, Shelton, Conn.) was added and plates were counted in a Packard Top-Count for 1 min/well.
κ-Opioid Receptor Functional Data: κ GTP EC50 is the concentration of a compound providing 50% of the maximal response for the compound at a κ receptor.
κ GTP Emax (%) is the maximal effect elicited by a compound relative to the effect elicited by U69,593.
as §1

For orientation: EC50 means the concentration at which the effect is half-maximal. A lower EC50 goes with a more potent agent. A word on the Emax: it is the size of the effect at its maximum, as opposed to the concentration needed. `COc1ccc2c(c1)[C@]13CCN(CC(F)(F)F)[C@H](C2)[C@]1(O)CC[C@@]1(C3)NC(=O)NC1=O` [Compound 13, (4bR,4′S,8aS,9R)-8a-hydroxy-3-methoxy-11-(2,2,2-trifluoroethyl)-5,7,8,8a,9,10-hexahydrospiro[9,4b-(epiminoethano)phenanthrene-6,4′-imidazolidine]-2′,5′-dione]: in experiment [1], the EC50 is more than 20 µM and the Emax turned out to be 10%. Also, in experiment [2], the concentration for a half-maximal effect (EC50) is more than 20 µM and the Emax was 65 ± 8.74%.
As for `COc1ccc2c(c1)[C@]13CCN(CCF)[C@H](C2)[C@]1(O)CC[C@@]1(C3)NC(=O)NC1=O` [Compound 14, (4bR,4′S,8aS,9R)-1-(2-fluoroethyl)-8a-hydroxy-3-methoxy-5,7,8,8a,9,10-hexahydrospiro[9,4b-(epiminoethano)phenanthrene-6,4′-imidazolidine]-2′,5′-dione], in experiment [1], the EC50 was more than 20 µM and the Emax worked out at 14.5%. Moreover, in experiment [2], the concentration for a half-maximal effect (EC50) is more than 20 µM and the Emax came out at 110 ± 6.74%.
Regarding `CCN1CC[C@]23C[C@]4(CC[C@@]2(O)[C@H]1Cc1ccc(OC)cc13)NC(=O)NC4=O` [Compound 15, (4bR,4′S,8aS,9R)-11-ethyl-8a-hydroxy-3-methoxy-5,7,8,8a,9,10-hexahydrospiro[9,4b-(epiminoethano)phenanthrene-6,4′-imidazolidine]-2′,5′-dione], in experiment [1], the EC50 is more than 20 µM and the Emax was determined as 8%. Also, in experiment [2], the EC50 is more than 20 µM and the Emax stood at 65.3 ± 7.86%.
As for `CCN1C(=O)N[C@]2(CC[C@@]3(O)[C@H]4Cc5ccc(OC)cc5[C@@]3(CCN4CC)C2)C1=O` [Compound 16, (4bR,4′S,8aS,9R)-1′,11-diethyl-8a-hydroxy-3-methoxy-5,7,8,8a,9,10-hexahydrospiro[9,4b-(epiminoethano)phenanthrene-6,4′-imidazolidine]-2′,5′-dione], the EC50 in experiment [1] and in experiment [2] was more than 20 µM throughout. For the same molecule, the results for the Emax in experiment [1] and in experiment [2] were 8.5% and 50 ± 1%, respectively.
As to `COc1ccc2c(c1)[C@]13CCN(CCC(F)(F)F)[C@H](C2)[C@]1(O)CC[C@@]1(C3)NC(=O)NC1=O` [Compound 17, (4bR,4′S,8aS,9R)-8a-hydroxy-3-methoxy-11-(3,3,3-trifluoropropyl)-5,7,8,8a,9,10-hexahydrospiro[9,4b-(epiminoethano)phenanthrene-6,4′-imidazolidine]-2′,5′-dione], in experiment [1], the EC50 is more than 20 µM and the Emax was determined as 18.5 ± 6.14%. In addition, in experiment [2], the EC50 is more than 20 µM and the Emax was found to be 83.7 ± 6.69%.
`COc1ccc2c(c1)[C@]13CCN(CCCC(F)(F)F)[C@H](C2)[C@]1(O)CC[C@@]1(C3)NC(=O)NC1=O` [Compound 18, (4bR,4′S,8aS,9R)-8a-hydroxy-3-methoxy-11-(4,4,4-trifluorobutyl)-5,7,8,8a,9,10-hexahydrospiro[9,4b-(epiminoethano)phenanthrene-6,4′-imidazolidine]-2′,5′-dione]: in experiment [1], the EC50 is more than 20 µM and the Emax came out at 20.7 ± 4.81%. In addition, in experiment [2], the EC50 was more than 20 µM and the Emax came to 86 ± 7.21%.
`COc1ccc2c(c1)[C@]13CCN(CC(F)F)[C@H](C2)[C@]1(O)CC[C@@]1(C3)NC(=O)NC1=O` [Compound 19, (4bR,4′S,8aS,9R)-11-(2,2-difluoroethyl)-8a-hydroxy-3-methoxy-5,7,8,8a,9,10-hexahydrospiro[9,4b-(epiminoethano)phenanthrene-6,4′-imidazolidine]-2′,5′-dione]: the EC50 in experiment [1] and in experiment [2] was more than 20 µM throughout. For the same molecule, the Emax in experiment [1] was 1%; in experiment [2], 52%.
Turning to `COc1ccc2c(c1)[C@]13CCN(CCc4ccccc4)[C@H](C2)[C@]1(O)CC[C@@]1(C3)NC(=O)NC1=O` [Compound 20, (4bR,4′S,8aS,9R)-8a-hydroxy-3-methoxy-11-phenethyl-5,7,8,8a,9,10-hexahydrospiro[9,4b-(epiminoethano)phenanthrene-6,4′-imidazolidine]-2′,5′-dione], in experiment [1], a half-maximal effect (EC50) was put at 0.664 ± 0.113 µM and the Emax was 105 ± 1.23%. In addition, in experiment [2], the EC50 is more than 20 µM and the Emax amounted to 75.7 ± 11.5%.
Take `COc1ccc2c(c1)[C@]13CCN(CC=C(C)C)[C@H](C2)[C@]1(O)CC[C@@]1(C3)NC(=O)NC1=O` [Compound 21, (4bR,4′S,8aS,9R)-8a-hydroxy-3-methoxy-11-(3-methylbut-2-en-1-yl)-5,7,8,8a,9,10-hexahydrospiro[9,4b-(epiminoethano)phenanthrene-6,4′-imidazolidine]-2′,5′-dione]: in experiment [1], the EC50 is more than 20 µM and the Emax came out at 5.5%. Besides, in experiment [2], the EC50 is more than 20 µM and the Emax is -1%.
Take `COc1ccc2c(c1)[C@]13CCN(CCC(C)C)[C@H](C2)[C@]1(O)CC[C@@]1(C3)NC(=O)NC1=O` [Compound 22, (4bR,4′S,8aS,9R)-8a-hydroxy-11-isopentyl-3-methoxy-5,7,8,8a,9,10-hexahydrospiro[9,4b-(epiminoethano)phenanthrene-6,4′-imidazolidine]-2′,5′-dione]: the results for the EC50 in experiment [1] and in experiment [2] were 3.96 ± 1.41 µM and more than 20 µM, respectively. The Emax in experiment [1] stood at 46 ± 6%; in experiment [2] it was 91.3 ± 6.57%.
For `COc1ccc2c(c1)[C@]13CCN(CC4CCCCC4)[C@H](C2)[C@]1(O)CC[C@@]1(C3)NC(=O)NC1=O` [Compound 23, (4bR,4′S,8aS,9R)-11-(cyclohexylmethyl)-8a-hydroxy-3-methoxy-5,7,8,8a,9,10-hexahydrospiro[9,4b-(epiminoethano)phenanthrene-6,4′-imidazolidine]-2′,5′-dione], in that order: more than 20 µM, more than 20 µM, 11% and 98 ± 8.89%.
For the molecule `COc1ccc2c(c1)[C@]13CCN(C/C=C/c4ccccc4)[C@H](C2)[C@]1(O)CC[C@@]1(C3)NC(=O)NC1=O` [Compound 24, (4bR,4′S,8aS,9R)-11-cinnamyl-8a-hydroxy-3-methoxy-5,7,8,8a,9,10-hexahydrospiro[9,4b-(epiminoethano)phenanthrene-6,4′-imidazolidine]-2′,5′-dione], in experiment [1], the EC50 was more than 20 µM and the Emax stood at 8%. Moreover, in experiment [2], the EC50 was more than 20 µM and the Emax came to 29.7 ± 1.86%.
For the molecule `COc1ccc2c(c1)[C@]13CCN(CC4CCOCC4)[C@H](C2)[C@]1(O)CC[C@@]1(C3)NC(=O)NC1=O` [Compound 25, (4bR,4′S,8aS,9R)-8a-hydroxy-3-methoxy-11-((tetrahydro-2H-pyran-4-yl)methyl)-5,7,8,8a,9,10-hexahydrospiro[9,4b-(epiminoethano)phenanthrene-6,4′-imidazolidine]-2′,5′-dione], the EC50 in experiment [1] and in experiment [2] was more than 20 µM throughout. The values for the Emax in experiment [1] and in experiment [2] were 6.67 ± 0.88% and 10 ± 4.6%, respectively.
Regarding `COc1ccc2c(c1)[C@]13CCN(CCCc4ccccc4)[C@H](C2)[C@]1(O)CC[C@@]1(C3)NC(=O)NC1=O` [Compound 26, (4bR,4′S,8aS,9R)-8a-hydroxy-3-methoxy-11-(3-phenylpropyl)-5,7,8,8a,9,10-hexahydrospiro[9,4b-(epiminoethano)phenanthrene-6,4′-imidazolidine]-2′,5′-dione], the EC50 in experiment [1] and in experiment [2] was more than 20 µM in each case. The Emax in experiment [1] was found to be 26.7 ± 11.7%; in experiment [2], 63 ± 8.72%.
